From patent EP4818178A1, “PREPARATION AND USE OF PYRIMIDOTHIOPYRANONE KRAS MUTANT PROTEIN INHIBITOR” (Ya Therapeutics Inc, priority 2024, dated 2025)

Tests used:
[1] = tested on: p-ERK in HCT116 (G13D) cells; experiment: Cellular p-ERK inhibition assay (HTRF); type: cell-based; details: Homo sapiens, HCT-116, 1 hour with compound, read-out: IC50 (nM) of the compounds on the inhibition of p-ERK in tumor cells, HCT11 6
Method: (§1) Cells were seeded in clear 96-well cell culture plates, with 80 µL of cell suspension per well, containing 8000 cells per well. The plates were incubated overnight at 37°C using a CO2 incubator. 2 µL of the compound was added to 78 µL of cell culture medium, mixed well, and then 20 µL of the compound solution was added to the corresponding wells of the cell culture plate. The plates were returned to the CO2 incubator for another hour. After incubation, the cell supernatant was discarded, and 50 µL of the […] was added to the cell culture plate. Add 1X cell lysis buffer to each well and incubate at room temperature with shaking for 30 minutes. Dilute Phospho-ERK1/2 Eu Cryptate antibody and Phospho-ERK1/2 d2 antibody 20-fold using detection buffer. Transfer 16 µL of cell lysis supernatant to each well in a new 384 white microplate, then add 2 µL of Phospho-ERK1/2 Eu Cryptate antibody diluent and 2 µL of Phospho-ERK1/2 d2 antibody diluent. Incubate at room temperature for at least 4 hours. After incubation, read the HTRF excitation (320 nm) and emission (615 nm, 665 nm) using a multilabel analyzer. Calculate the IC50 of the analyte. "++++" indicates IC50≤ 10 nM; "+++" indicates 10 nM < IC50≤ 100 nM; "++" indicates 100 nM < IC50≤ 2000 nM; "+" indicates 2000 nM < IC50. Table 2. IC50 (nM) of the compounds on the inhibition of p-ERK in tumor cells.

[2] = tested on: p-ERK in NCI-H727 (G12V) cells; experiment: Cellular p-ERK inhibition assay (HTRF); type: cell-based; details: Homo sapiens, 1 hour with compound, read-out: IC50 (nM) of the compounds on the inhibition of p-ERK in tumor cells, NCI-H72 7
Method: as §1

[3] = tested on: p-ERK in AsPC-1 (G12D) cells; experiment: Cellular p-ERK inhibition assay (HTRF); type: cell-based; details: Homo sapiens, ASPC1, 1 hour with compound, read-out: IC50 (nM) of the compounds on the inhibition of p-ERK in tumor cells, AsPC-1
Method: as §1

[4] = tested on: p-ERK in A549 (G12S) cells; experiment: Cellular p-ERK inhibition assay (HTRF); type: cell-based; details: 1 hour with compound
Method: as §1

[5] = tested on: p-ERK in MKN1 (WTdep) cells; experiment: Cellular p-ERK inhibition assay (HTRF); type: cell-based; details: Homo sapiens, MKN-1, 1 hour with compound, read-out: IC50 (nM) of the compounds on the inhibition of p-ERK in tumor cells, MKN 1
Method: as §1

[6] = tested on: p-ERK in NCI-H460 (Q61H) cells; experiment: Cellular p-ERK inhibition assay (HTRF); type: cell-based; details: Homo sapiens, 1 hour with compound, read-out: IC50 (nM) of the compounds on the inhibition of p-ERK in tumor cells, NCI-H46 0
Method: as §1

[7] = tested on: p-ERK in PSN-1 (G12R) cells; experiment: Cellular p-ERK inhibition assay (HTRF); type: cell-based; details: Homo sapiens, PSN1, 1 hour with compound, read-out: IC50 (nM) of the compounds on the inhibition of p-ERK in tumor cells, PSN-1
Method: as §1

[8] = tested on: p-ERK in NCI-H358 (G12C) cells; experiment: Cellular p-ERK inhibition assay (HTRF); type: cell-based; details: Homo sapiens, 1 hour with compound, read-out: IC50 (nM) of the compounds on the inhibition of p-ERK in tumor cells, NCI-H35 8
Method: as §1

KRasG12D = KRasG12D (Homo sapiens, UniProt P01116, G12D); experiment: KRAS inhibitory activity test, TR-FRET (inhibition of binding of KRasG12D to GTP, SOS/GTP nucleotide exchange); type: biochemical; details: read-out: IC50 values of the compounds for inhibiting KRAS enzymes, G12D
Procedure, shortened: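 KRasG12D preloaded with Bodipy-GDP plus Tb-streptavidin (3 nM Kras/0.5 nM Tb-SA/30 nM Bodipy-GDP) incubated 1 h at rt with compound (10-point 3-fold series). SOS/GTP mixture then added for 1 h at rt. TR-FRET signal read; IC50 calculated.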

Chain of KRasG12D (P01116 1-188 isoform P01116-2 G12D): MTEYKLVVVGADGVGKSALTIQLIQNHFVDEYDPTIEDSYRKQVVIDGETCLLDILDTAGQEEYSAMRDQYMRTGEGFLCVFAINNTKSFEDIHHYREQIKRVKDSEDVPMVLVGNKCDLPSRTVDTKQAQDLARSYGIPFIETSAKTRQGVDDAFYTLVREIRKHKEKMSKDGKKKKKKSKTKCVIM

Row | SMILES | IC50 [1] [nM] | IC50 [2] [nM] | IC50 [3] [nM] | IC50 (nM) of the compounds on the inhibition of p-ERK in tumor cells, A54 9 [4] | IC50 [5] [nM] | IC50 [6] [nM] | IC50 [7] [nM] | IC50 [8] [nM] | IC50 (KRasG12D) [nM]
1 | Cc1cc(N)c(F)c(C2Cc3nc(OC[C@@]45CCCN4C[C@H](F)C5)nc(N4CCC[C@@](C)(O)C4)c3CS2(=O)=O)c1C(F)(F)F (stereo partly drawn) [Compound 5, 7-(3-amino-2-fluoro-5-methyl-6-(trifluoromethyl)phenyl)-2-(((2R,7AS)-2-fluorotetra hydro-1H-pyrrolazin-7a(5H)-yl)methoxy)-4-((R)-3-hydroxy-3-methylpiperidin-1-yl)-7,8-dihydro-5H-thiopyrano[4,3-d]pyrimidine 6,6-dioxide] | ≤ 10 | ≤ 10 | ≤ 10 | +++ + | ≤ 10 | ≤ 10 | 100 to 2000 | ≤ 10 | ≤ 10
2 | Cc1cc(O)c(F)c(C2Cc3nc(OC[C@@]45CCCN4C[C@H](F)C5)nc(N4C[C@H]5CC[C@@H](C4)N5)c3CS2(=O)=O)c1C(F)(F)F (stereo partly drawn) [Compound 2, 4-((1R,5S)-3,8-diazabicyclo[3.2.1]octane-3-yl)-7-(2-fluoro-3-hydroxy-5-methyl-6-(trifluoromethyl)phenyl)-2-(((2R,7AS)-2-fluorotetrahydro-1H-pyrrolazin-7a(5H)-yl)methoxy)-7,8-dihydro-5H-thiopyrano[4,3-d]pyrimidine-6,6-dioxide] | ≤ 10 | – | ≤ 10 | – | – | – | 100 to 2000 | – | ≤ 10
3 | Cc1cc(N)nc(C2Cc3nc(OC[C@@]45CCCN4C[C@H](F)C5)nc(N4CCC[C@@](C)(O)C4)c3CS2(=O)=O)c1C(F)(F)F (stereo partly drawn) [Compound 7, 7-(6-amino-4-methyl-3-(trifluoromethyl)pyridin-2-yl)-2-(((2R,7AS)-2-fluorotetrahydro-1H-pyrrolazin-7a(5H)-yl)methoxy)-4-((R)-3-hydroxy-3-methylpiperidin-1-yl)-7,8-d ihydro-5H-thiopyrano[4,3-d]pyrimidine 6,6-dioxide] | ≤ 10 | – | ≤ 10 | – | – | – | 100 to 2000 | – | ≤ 10
4 | Cc1cc(O)c(F)c(C2Cc3nc(OC[C@@]45CCCN4C[C@H](F)C5)nc(N4CCC[C@@](C)(O)C4)c3CS2(=O)=O)c1C(F)(F)F (stereo partly drawn) [Compound 6, 7-(2-fluoro-3-hydroxy-5-methyl-6-(trifluoromethyl)phenyl)-2-(((2R,7AS)-2-fluorotetrahydro-1H-pyrrolazin-7a(5H)-yl)methoxy)-4-((R)-3-hydroxy-3-methylpiperidin-1-yl)-7,8-dihydro-5H-thiopyrano[4,3-d]pyrimidine 6,6-dioxide] | ≤ 10 | ≤ 10 | ≤ 10 | +++ + | ≤ 10 | ≤ 10 | 100 to 2000 | ≤ 10 | ≤ 10
5 | Cc1cc(N)nc(C2Cc3nc(OC[C@@]45CCCN4C[C@H](F)C5)nc(N4C[C@H]5CC[C@@H](C4)N5)c3CS2(=O)=O)c1C(F)(F)F (stereo partly drawn) [Compound 3, 7-(6-amino-4-methyl-3-(trifluoromethyl)pyridin-2-yl)-4-((1R,5S)-3,8-diazabicyclo[3. 2.1]octane-3-yl)-2-(((2R,7AS)-2-fluorotetrahydro-1H-pyrrolazin-7a(5H)-yl)methoxy) -7,8-dihydro-5H-thiopyrano[4,3-d]pyrimidine-6,6-dioxide] | ≤ 10 | – | ≤ 10 | – | – | – | 100 to 2000 | – | ≤ 10
6 | Cc1cc(O)nc(C2Cc3nc(OC[C@@]45CCCN4C[C@H](F)C5)nc(N4C[C@H]5CC[C@@H](C4)N5)c3CS2(=O)=O)c1C(F)(F)F (stereo partly drawn) [Compound 4, 4-((1R,5S)-3,8-diazabicyclo[3.2.1]octane-3-yl)-2-(((2R,7AS)-2-fluorotetrahydro-1H-pyrrolazin-7a(5H)-yl)methoxy)-7-(6-hydroxy-4-methyl-3-(trifluoromethyl)pyridin-2-yl)-7,8-dihydro-5H-thiopyrano[4,3-d]pyrimidine-6,6-dioxide] | ≤ 10 | – | ≤ 10 | – | – | – | 100 to 2000 | – | ≤ 10
7 | Cc1cc(O)nc(C2Cc3nc(OC[C@@]45CCCN4C[C@H](F)C5)nc(N4CCC[C@@](C)(O)C4)c3CS2(=O)=O)c1C(F)(F)F (stereo partly drawn) [Compound 8, 2-(((2R,7AS)-2-fluorotetrahydro-1H-pyrrolazin-7a(5H)-yl)methoxy)-4-((R)-3-hydroxy-3-methylpiperidin-1-yl)-7-(6-hydroxy-4-methyl-3-(trifluoromethyl)pyridin-2-yl)-7,8-dihydro-5H-thiopyrano[4,3-d]pyrimidine-6,6-dioxide] | ≤ 10 | – | ≤ 10 | – | – | – | 100 to 2000 | – | ≤ 10
8 | Cc1cc(N)c(F)c([C@@H]2Cc3nc(OC[C@@]45CCCN4C[C@H](F)C5)nc(N4C[C@H]5CC[C@@H](C4)N5)c3CS2(=O)=O)c1C(F)(F)F [Compound 1A, (7S)-7-(3-amino-2-fluoro-5-methyl-6-(trifluoromethyl)phenyl)-4-((1R,5S)-3,8-diazabicyclo[3.2.1]octane-3-yl)-2-(((2R,7AS)-2-fluorotetrahydro-1H-pyrrolazin-7a(5H)-yl)methoxy)-7,8-dihydro-5H-thiopyrano[4,3-d]pyrimidine 6,6-Dioxide] | – | – | – | – | – | – | – | – | ≤ 10
9 | Cc1cc(N)cc(C2Cc3nc(OC[C@@]45CCCN4C/C(=C\F)C5)nc(N4CC5CCC(C4)N5)c3CS2(=O)=O)c1C(F)(F)F (some centres unmarked) [Compound 35] | – | – | – | – | – | – | – | – | ≤ 10
10 | Cc1cc(N)nc([C@@H]2Cc3nc(OC[C@@]45CCCN4CC(=CF)C5)nc(N4CC5CCC(C4)N5)c3CS2(=O)=O)c1C(F)(F)F [Compound 19A, (7S)-7-(6-amino-4-methyl-3-(trifluoromethyl)pyridin-2-yl)-2-(((S)-2-(fluoromethylene)tetrahydro-1H-pyrrolazin-7a(5H)-yl)methoxy)-4-(3,8-diazabicyclo[3.2.1]octane-3-y 1)-7,8-dihydro-5H-thiopyrano[4,3-d]pyrimidine-6,6-dioxide] | – | – | – | – | – | – | – | – | ≤ 10
11 | Cc1cc(N)c(F)c([C@H]2Cc3nc(OC[C@@]45CCCN4C[C@H](F)C5)nc(N4C[C@H]5CC[C@@H](C4)N5)c3CS2(=O)=O)c1C(F)(F)F [Compound 1B, (7R)-7-(3-amino-2-fluoro-5-methyl-6-(trifluoromethyl)phenyl)-4-((1R,5S)-3,8-diazabicyclo[3.2.1]octane-3-yl)-2-(((2R,7AS)-2-fluorotetrahydro-1H-pyrrolazin-7a(5H)-yl)methoxy)-7,8-dihydro-5H-thiopyrano[4,3-d]pyrimidine 6,6-Dioxide] | – | – | – | – | – | – | – | – | 10 to 100
12 | C=C1CN2CCC[C@@]2(COc2nc3c(c(N4CC5CCC(C4)N5)n2)CS(=O)(=O)[C@H](c2c(F)c(N)cc(C#CC)c2C(F)(F)F)C3)C1 [Compound 22A, (7S)-7-(3-amino-2-fluoro-5-(prop-1-yn-1-yl)-6-(trifluoromethyl)phenyl)-4-(3,8-diazabicyclo[3.2.1]octane-3-yl)-2-(((S)-2-(methylene)tetrahydro-1H-pyrrolazin-7a(5H)-yl)methoxy)-7,8-dihydro-5H-thiopyrano[4,3-d]pyrimidine-6,6-dioxide] | – | – | – | – | – | – | – | – | ≤ 10
13 | Cc1cc(O)nc([C@@H]2Cc3nc(OC[C@@]45CCCN4C[C@H](F)C5)nc(N4C[C@H]5CC[C@@H](C4)N5)c3CS2(=O)=O)c1C(F)(F)F [Compound 4A, (7S)-4-((1R,5S)-3,8-diazabicyclo[3.2.1]octane-3-yl)-2-(((2R,7AS)-2-fluorotetrahydro-1H-pyrrolazin-7a(5H)-yl)methoxy)-7-(6-hydroxy-4-methyl-3-(trifluoromethyl)pyridin-2-yl)-7,8-dihydro-5H-thiopyrano[4,3-d]pyrimidine-6,6-dioxide] | – | – | – | – | – | – | – | – | ≤ 10
